Laboratory results published in paper PMC8226474, “Design, Syntheses, and Bioevaluations of Some Novel N^2-Acryloylbenzohydrazides as Chemostimulants and Cytotoxic Agents” (Medicines, 2021).
Where two headings read alike, the source gives them in different places.

Assays:
HCT 116 cells [1] = test: Cytotoxicity assay, HCT 116 colon cancer cells; type: cell-based, human; conditions: for inhibition at 10 µM / inhibition at 100 µM / IC50: Homo sapiens, HCT-116, 48 h; for inhibition at 10 µM / inhibition at 100 µM: read-out: percentage inhibition of HCT 116 cells; for IC50: read-out: IC50 HCT 116
From the text: (§1) Evaluation of the cytotoxic properties of the compounds presented in Table 1, Table 2, Table 3 and Table 4 was undertaken using the procedure outlined in [7]. In brief, the HCT 116 cells were obtained from the ATCC and cultured in McCoy’s 5A medium. The CRL 1790 cells were obtained from the ATCC and cultured in Minimum Essential Medium. The MCF-7 and MDA-MBA-231 cells were obtained from the Saskatchewan Cancer Agency and cultured in DMEM. In each assay the culture medium was supplemented with 10% fetal bovine serum and 1% penicillin–streptomycin antibiotics. The time of the bioassays was 48 h, unless indicated otherwise. All determinations were carried out in triplicate on three different occasions.

MCF-7 cells = test: Cytotoxicity assay, MCF-7 breast cancer cells; type: cell-based, human; conditions: for inhibition at 10 µM / inhibition at 100 µM: read-out: percentage inhibition of MCF-7 cells
From the text: as §1

MDA-MB-231 cells = test: Cytotoxicity assay, MDA-MB-231 breast cancer cells; type: cell-based, human; conditions: Homo sapiens, MDA-MB-231, 48 h, read-out: percentage inhibition of MDA-MB-231 cells
From the text: as §1

Ramos cells = test: Cytotoxicity (CC50), Ramos cells; type: cell-based, human
Experimental: (§2) In brief, the compounds were incubated for 24 h with the neoplasms, using DMEM and RPMI media. Three independent experiments were carried out.

NALM-60 cells = test: Cytotoxicity (CC50), NALM-60 cells; type: cell-based, human
Experimental: as §2

CEM cells = test: Cytotoxicity (CC50), CEM cells; type: cell-based, human
Experimental: as §2

HL-60 cells = test: Cytotoxicity (CC50), HL-60 cells; type: cell-based, human
Experimental: as §2

JURKAT cells = test: Cytotoxicity (CC50), Jurkat cells; type: cell-based, human
Experimental: as §2

RAJI cells = test: Cytotoxicity (CC50), Raji cells; type: cell-based, human
Experimental: as §2

[2] = Cytotoxicity (CC50), non-malignant Hs27 foreskin cells; type: cell-based; conditions: human, 24 h incubation
Experimental: as §2

[3] = Cytotoxicity (CC50), non-malignant MCF-10A breast cells; type: cell-based; conditions: human, MCF-10A cells (non-malignant breast cells); 24 h incubation; read-out: Non-Malignant Cells CC50, MCF10A
Experimental: as §2

[4] = tested on: Ramos, NALM-60, CEM, HL-60, JURKAT, RAJI cells; test: Cytotoxicity (CC50), average over six leukemia/lymphoma cell lines; type: cell-based, human
Experimental: as §2

[5] = Cytotoxicity (CC50), average over non-malignant cells; type: cell-based; conditions: human, Hs27 and MCF10A cells (non-malignant), average of both
Experimental: as §2

CRL 1790 cells = test: Cytotoxicity assay, non-malignant CRL 1790 colon cells; type: cell-based; conditions: Homo sapiens, 48 h
From the text: as §1

HCT 116 cells [6] = test: Mitochondrial membrane potential of HCT 116 cells (TMRE dye); type: cell-based, human; conditions: IC50 concentration towards HCT 116, 48 h, Figure 4
From the text: The method of Crowley et al. was employed in order to ascertain the effects of 1m, 7a, e, g, and 5-FU on the mitochondrial membrane potential of HCT 116 cells.
The decision was made to experiment with another method for determining the effect of compounds on the MMP. In this assay, the dye used was tetramethylrhodamine ethyl ester (TMRE), which can be found in the mitochondria of healthy cells. However, in apoptotic cells, the dye is released into the cytosol, leading to a decrease in the fluorescence signal.

HCT 116 cells [7] = test: ROS levels in HCT 116 cells (DCF-DA dye); type: cell-based, human; conditions: IC50 concentration towards HCT 116; DCF-DA fluorescence; Figure 5
Experimental: In this assay, the dye 2,7-dichlorofluorescein diacetate (DCF-DA) was used, and the effects of 1m, 7a, e, g, and 5-FU on the ROS levels in HCT 116 cells were determined by the method of [11].
The evaluation of 1m, […], e, and g for their capacity to increase the concentration of ROS in HCT 116 cells used 2′,7′-dichlorofluorescein diacetate. This dye is deacetylated in cells, and is converted into a non-fluorescent compound that reacts with ROS to form 2′,7′-dichlorofluorescein, which is fluorescent.

[8] = ratio of IC50 values towards HCT 116 cells
[9] = Table 4, read-out: IC50 CRL 1790

melting point [°C]	Compound	inhibition at 10 µM (HCT 116 cells [1]) [%]	inhibition at 100 µM (HCT 116 cells [1]) [%]	inhibition at 10 µM (MCF-7 cells; Homo sapiens, MCF7, 48 h) [%]	inhibition at 100 µM (MCF-7 cells; Homo sapiens, MCF7, 48 h) [%]	inhibition at 10 µM (MDA-MB-231 cells) [%]	inhibition at 100 µM (MDA-MB-231 cells) [%]	IC50 (HCT 116 cells [1]; Table 4) [µM]	IC50 (CRL 1790 cells; [9]) [µM]	effect on mitochondrial membrane potential of HCT 116 cells (HCT 116 cells [6])	effect on ROS levels in HCT 116 cells (HCT 116 cells [7])	also measured
207 to 210	C=CC(=O)NNC(=O)c1cc(Cl)ccc1Cl [1h, N^2-Acryloyl-2,5-dichlorobenzohydrazide]	7.12 ± 1.51	87.7 ± 1.62	14.7 ± 3.68	54.2 ± 3.42	-5.95 ± 4.21	122 ± 2.9					CC50 (Ramos cells; Homo sapiens, Ramos, 24 h incubation): 0.29 ± 0.05 µM; SI Ramos (Ramos cells; average CC50 of non-malignant cells / CC50 Ramos): 47.2; CC50 (NALM-60 cells; Homo sapiens, 24 h incubation): 3.34 ± 0.43 µM; SI NALM-60 (NALM-60 cells; average CC50 of non-malignant cells / CC50 NALM-60): 4.10; CC50 (CEM cells; Homo sapiens, CCRF-CEM, 24 h incubation): 3.37 ± 0.18 µM; SI CEM (CEM cells; average CC50 of non-malignant cells / CC50 CEM): 4.07; CC50 (HL-60 cells; Homo sapiens, HL-60, 24 h incubation): 5.62 ± 0.29 µM; SI HL-60 (HL-60 cells; average CC50 of non-malignant cells / CC50 HL-60): 2.44; CC50 (JURKAT cells; Homo sapiens, Jurkat, 24 h incubation): 2.5 ± 0.24 µM; SI JURKAT (JURKAT cells; average CC50 of non-malignant cells / CC50 JURKAT): 5.48; CC50 (RAJI cells; Homo sapiens, Raji, 24 h incubation): 5.5 ± 1.1 µM; SI RAJI (RAJI cells; average CC50 of non-malignant cells / CC50 RAJI): 2.49; CC50 at 24 h [2]: 14.4 ± 0.24 µM; CC50 at 24 h [3]: 12.9 ± 0.95 µM; Avg SI, neoplastic cells [4]: 11.0; CC50 ([4]; Homo sapiens, average over six neoplastic cell lines): 3.44 µM; CC50 at 24 h [5]: 13.7 µM
157 to 160	C=CC(=O)NNC(=O)c1ccc(C)cc1 [1k, N^2-Acryloyl-4-methylbenzohydrazide]	11.5 ± 2.99	> 100	55.3 ± 3.05	> 100	-8.78 ± 1.52	74.7 ± 2.96					IC50 (MCF-7 cells; Homo sapiens, MCF7, Table 2, 48 h, read-out: Neoplastic Cells IC50, MCF-7): 5.54 ± 0.51 µM; SI (selectivity index) (MCF-7 cells; IC50 CRL 1790 / IC50 MCF-7, Table 2): >18.1; IC50 (CRL 1790 cells; Table 2, read-out: Non-Malignant CRL 1790 Cells IC50): > 100 µM
154 to 156	O=C(CCN1CC(=Cc2ccccc2)C(=O)C(=Cc2ccccc2)C1)NNC(=O)c1ccccc1 [7a, 3,5-Bis(benzylidene)-1-[3-(phenylcarbonylaminoamino)-3-oxo-1-propyl]-4-piperidone]							1.38 ± 0.25	12.3 ± 1.09	only 7e reduces the electrochemical potential of the mitochondria	increase the fluorescence intensity	times more potent than 1a (HCT 116 cells [1]; [8]): 26.7 times

Compound	melting point [°C]	inhibition at 10 µM (HCT 116 cells [1]) [%]	inhibition at 100 µM (HCT 116 cells [1]) [%]	inhibition at 10 µM (MCF-7 cells; Homo sapiens, MCF7, 48 h) [%]	inhibition at 100 µM (MCF-7 cells; Homo sapiens, MCF7, 48 h) [%]	inhibition at 10 µM (MDA-MB-231 cells) [%]	inhibition at 100 µM (MDA-MB-231 cells) [%]	IC50 (HCT 116 cells [1]; Table 4) [µM]	IC50 (CRL 1790 cells; [9]) [µM]	effect on mitochondrial membrane potential of HCT 116 cells (HCT 116 cells [6])	effect on ROS levels in HCT 116 cells (HCT 116 cells [7])	also measured
COc1ccc(C(=O)NNC(=O)CCN2CC(=Cc3ccc([N+](=O)[O-])cc3)C(=O)C(=Cc3ccc([N+](=O)[O-])cc3)C2)cc1OC [7e, 3,5-Bis(4-nitrobenzylidene)-1-[3-(3,4-dimethoxyphenylcarbonylaminoamino)-3-oxo-1-propyl]-4-piperidone]	153 to 158							0.28 ± 0.01	4.57 ± 0.53	reduces the electrochemical potential of the mitochondria	increase the fluorescence intensity	SI (selectivity index) (HCT 116 cells [1]; IC50 CRL 1790 / IC50 HCT 116, Table 4): 16.3; times more potent than 5-FU (HCT 116 cells [1]; [8]): 14.7 times; times the antineoplastic activity of melphalan (HCT 116 cells [1]; [8]): 119 times
